Laboratory results as given in PubChem BioAssay AID2842 (Southern Research Institute, 2010).
Values after ≈ are worked out from the molar mass of the structure shown.

Each compound was assayed on M. tuberculosis H37Rv growth inhibition (assay: Mycobacterium tuberculosis H37Rv growth inhibition, putative kinase inhibitor library, confirmatory dose response (AID 2842);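 further: bacteria incubated one week before Alamar blue readout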).

SMILES	IC90 [µg/mL]
COc1ccc(Cn2cc3c(-c4ccccc4)nnc-3c3cc(OC)c(OC)cc32)cc1	6.64 (≈ 15.6 µM)
COC(=O)c1ccc(CSc2nnc(-c3ccncc3)o2)o1	5.77 (≈ 18.2 µM)
CN(C)S(=O)(=O)c1ccc(C(=O)Nc2nnc(-c3ccc(Br)cc3)o2)cc1	6.69 (≈ 14.8 µM)
O=C(Nc1nnc(-c2ccc(Cl)cc2)o1)c1ccco1	1.11 (≈ 3.83 µM)
O=C(COc1ccc2ccccc2c1)Nc1nnc2n1CCS2	23.6 (≈ 72.2 µM)
CCN1C(=O)c2cccc3c(NC(=O)c4ccc(S(=O)(=O)N(C)C)cc4)ccc1c23	24.2 (≈ 57.2 µM)
O=C(Nc1nnc(-c2ccc(Cl)s2)o1)c1ccc([N+](=O)[O-])o1	0.85 (≈ 2.49 µM)
O=C(Nc1cccc(Cl)c1)Nc1c2c(nn1-c1ccccc1)CSC2	19.7 (≈ 53.2 µM)
COc1cccc2sc(Nc3nc4ccc(S(C)(=O)=O)cc4s3)nc12	20.2 (≈ 51.7 µM)
c1c2c(cc3sc(N4CCCC4)nc13)OCO2	< 0.2
CC(C)N1CCc2c(sc(NC(=O)c3nc4ccccc4s3)c2C(N)=O)C1	12.9 (≈ 32.3 µM)
N=C1SCC(=O)N1c1ncc(Cc2cccc(Cl)c2)s1	2.11 (≈ 6.52 µM)
CC(C)c1ccc2nc(Nc3nc4ccc(S(C)(=O)=O)cc4s3)sc2c1	12 (≈ 29.8 µM)
O=C(Nc1nnc(-c2ccc3c(c2)CCCC3)o1)c1ccc([N+](=O)[O-])s1	0.68 (≈ 1.84 µM)
O=C(CSc1nc(-c2cccc(F)c2)[nH]c1-c1ccccc1)Nc1ccc2c(c1)OCCO2	7.87 (≈ 17.1 µM)
COc1ccc2c(c1)c(=O)c(C(=O)c1ccc(C)cc1)cn2Cc1cccc(C)c1	6.97 (≈ 17.5 µM)
CC(C)(C)c1ccc(C(=O)Nc2nnc(-c3ccco3)o2)cc1	1.18 (≈ 3.79 µM)
Cc1ccc(-n2ncc3c(=O)n(CC(=O)Nc4ccc([N+](=O)[O-])cc4)cnc32)cc1	6.91 (≈ 17.1 µM)
COc1ccccc1Cn1cc2c(-c3ccc(Cl)cc3)nnc-2c2ccccc21	8.89 (≈ 22.2 µM)
Cc1ccccc1C(=O)Nc1nnc(-c2cc(Cl)ccc2Cl)o1	1.27 (≈ 3.65 µM)
Cc1cc(NS(=O)(=O)c2ccc(NC(=O)CCCOc3ccc(Cl)cc3)cc2)no1	19.1 (≈ 42.5 µM)
CCOc1ccc2nc(N(CCCn3ccnc3)C(=O)c3ccc(F)cc3)sc2c1	7.77 (≈ 18.3 µM)
O=C(CSc1nnc(-c2ccncc2)o1)N1CCCCC1	14.2 (≈ 46.7 µM)

SMILES	IC90 [µg/mL]
COc1ccc2nc(Nc3nc(C(C)(C)C)cs3)sc2c1	10.1 (≈ 31.7 µM)
COc1cc2ccccc2cc1C(=O)Nc1nnc(-c2cc(C)ccc2C)o1	1.23 (≈ 3.29 µM)
CCOc1cccc2sc(N3CCc4ccccc4C3)nc12	15.3 (≈ 49.2 µM)
Cc1ccc(C(=O)Nc2cccc(-c3ccc4nnc(C)n4n3)c2)cc1C	12.9 (≈ 36 µM)
CCOc1ccc(NCCCn2c(C)cn3c4c(=O)[nH]c(=O)n(C)c4nc23)cc1	20.5 (≈ 51.7 µM)
N=C1SC(c2ccccc2)C(=O)N1c1nccs1 (stereo not given)	30.1 (≈ 109 µM)
CCOC(=O)CNC(=O)CSc1ncnc2c1nnn2Cc1ccccc1F	3.38 (≈ 8.36 µM)
COc1cccc2sc(N(CCCn3ccnc3)C(=O)c3ccco3)nc12	12.4 (≈ 32.5 µM)
COc1ccc(C(=O)/C=C2\C(=O)Nc3ccccc32)cc1	38.6 (≈ 138 µM)
Cc1ccc(Nc2nc(N3CCN(c4ccccc4)CC3)nc3nccnc23)cc1C	32 (≈ 77.7 µM)
CC1=NC2C=CC(Cl)=CC2C(c2ccccc2)=C1C(=O)/C=C/c1nc2ccccc2[nH]1 (stereo not given)	0.73 (≈ 1.71 µM)
CC(=O)CSc1nc2c([nH]c3ccccc32)c(=O)n1-c1cc(C)ccc1C	22 (≈ 58.2 µM)
COc1cccc(Nc2nc3ccc(OC)cc3s2)c1	23.3 (≈ 81.2 µM)
CCc1ccc(Cc2cnc(NC(=O)c3c(C)coc3C)s2)cc1	7.42 (≈ 21.8 µM)
COc1ccc(-c2nnc3c4cc5c(cc4n(Cc4cccc(OC)c4)cc2-3)OCCO5)cc1	5.28 (≈ 11.6 µM)
COc1cccc2sc(Nc3nnc(-c4ccccc4)o3)nc12	6.08 (≈ 18.7 µM)
Cc1ccc(S(=O)(=O)CCCC(=O)Nc2nc3c(Cl)c(Cl)ccc3s2)cc1	3.41 (≈ 7.69 µM)
Cc1ccc2sc(N(CCCn3ccnc3)C(=O)c3ccco3)nc2c1C	0.58 (≈ 1.52 µM)
CC1CN(c2ncnc3c2c(-c2ccccc2)cn3-c2ccccc2)CC(C)O1 (stereo not given)	29.1 (≈ 75.8 µM)
O=C(NNc1nc2c(F)cc(F)cc2s1)c1nc2ccccc2s1	21.8 (≈ 60.2 µM)
O=C(OCc1ccco1)c1cc2ccccc2oc1=O	20.4 (≈ 75.3 µM)
CC(C)COc1ccc(S(=O)(=O)Nc2ccc3c(c2)C(=O)Nc2ccccc2O3)cc1	6.99 (≈ 15.9 µM)
CC(C)c1ccc(-c2csc(NC(=O)c3ccc4c(c3)OCCO4)n2)cc1	3.39 (≈ 8.91 µM)

SMILES	IC90 [µg/mL]
CCOc1cc(-c2nnc(NC(=O)c3cccs3)o2)cc(OCC)c1OCC	3.02 (≈ 7.49 µM)
O=C(Nc1nnc(-c2ccc(Cl)cc2)o1)c1ccc([N+](=O)[O-])o1	0.26 (≈ 0.777 µM)
O=C(NNc1nc2c(Cl)cccc2s1)c1coc2ccccc2c1=O	11.1 (≈ 29.9 µM)
Cc1ccc(C(=O)Nc2nnc(C3=COCCO3)o2)cc1	2.78 (≈ 9.68 µM)
COc1ccc(C)c2sc(N3CCc4ccccc4C3)nc12	11.1 (≈ 35.6 µM)
CS(=O)(=O)NNc1ccc([N+](=O)[O-])cc1[N+](=O)[O-]	11.6 (≈ 41.9 µM)
CCN1C(=O)c2cccc3c(NC(=O)c4ccc(Cl)s4)ccc1c23	8.65 (≈ 24.2 µM)
O=C(c1ccco1)N(CCCn1ccnc1)c1nc2ccccc2s1	4.28 (≈ 12.1 µM)
O=C1CC(c2nc3ccccc3n2Cc2ccccc2Cl)CN1c1ccccc1F (stereo not given)	18.1 (≈ 43.2 µM)
COc1cccc(C(=O)Nc2nnc(-c3ccc(C)cc3C)o2)c1	20.8 (≈ 64.2 µM)
CCCC(=O)Nc1nnc(-c2ccc(Cl)s2)o1	27.2 (≈ 100 µM)
COC(=O)c1ccc(NC(=O)CSc2nc(-c3cccc(C)c3)ns2)cc1	< 0.2
Cc1ccc(-c2nnc(NC(=O)c3ccc(S(=O)(=O)N(C)C4CCCCC4)cc3)o2)c(C)c1	39.2 (≈ 83.6 µM)
CCOc1ccc(-c2nnc3c4cc5c(cc4n(Cc4cccc(F)c4)cc2-3)OCO5)cc1	54.2 (≈ 123 µM)
Cc1cccc(C(=O)Nc2nnc(C3=COCCO3)o2)c1	3.36 (≈ 11.7 µM)
COc1cc2c(=O)c(C(=O)c3ccc(F)cc3)cn(Cc3ccc(C)cc3)c2cc1OC	7.24 (≈ 16.8 µM)
O=C1CN(C(=O)c2cccc(F)c2)C(c2ccc(F)cc2)c2cc(Br)ccc2N1 (stereo not given)	32.1 (≈ 70.2 µM)
O=C(Nc1nnc(-c2ccc(F)cc2)o1)c1ccc2c(c1)CCCC2	8.65 (≈ 25.6 µM)
CCCCOc1ccc(C(=O)Nc2nnc(-c3cc(C)ccc3C)o2)cc1	25.4 (≈ 69.5 µM)
COc1cccc(-c2nnc(NC(=O)c3cccc(F)c3)o2)c1	< 0.2
CC(=O)N1CCc2c(sc(NC(=O)c3cccs3)c2C(N)=O)C1	3.21 (≈ 9.19 µM)
O=C(Nc1nnc(-c2ccc3c(c2)OCCO3)o1)c1ccccc1Br	12.6 (≈ 31.4 µM)
CCOC(=O)COc1cccc(/C=C2\Oc3cc(OC)ccc3C2=O)c1	3.52 (≈ 9.93 µM)

SMILES	IC90 [µg/mL]
COC(=O)c1c2c(n3ccc(C)cc13)C(=O)c1ccccc1C2=O	0.35 (≈ 1.1 µM)
Cc1cccc2sc(NNC(=O)c3cc4ccccc4oc3=O)nc12	2.94 (≈ 8.37 µM)
O=C(Nc1nnc(-c2ccco2)o1)c1cc(Cl)ccc1Cl	4.99 (≈ 15.4 µM)
Cc1cc(C)cc(Nc2cc(C)nc3c(-c4ccccc4)cnn23)c1	2.7 (≈ 8.22 µM)
Clc1ccc(Nc2ccc(NCc3ccccc3)nn2)cc1	5.5 (≈ 17.7 µM)
Oc1ccc(Br)cc1C1CC(c2ccoc2)=NN1 (stereo not given)	25.3 (≈ 82.4 µM)
CCOc1ccc(C(=O)Nc2nnc(-c3ccccn3)o2)cc1	1.03 (≈ 3.32 µM)
Cc1ccc(C)c(-c2nnc(NC(=O)C(C)C)o2)c1	6.62 (≈ 25.5 µM)
Cc1cc(C)c2nc(NNC(=O)c3ccccc3F)sc2c1	3.08 (≈ 9.77 µM)
COc1ccc(-c2nc(NC(=O)c3cccc(C)c3)sc2C)cc1	5.78 (≈ 17.1 µM)
Cc1ccc2sc(NNC(=O)c3cccs3)nc2c1C	23.2 (≈ 76.4 µM)
COc1ccc(C(=O)Nc2nc3c(s2)CCCC3)cc1OC	22.8 (≈ 71.7 µM)
CC(C)(C)c1ccc(C(=O)Nc2nnc(-c3cccnc3)o2)cc1	0.84 (≈ 2.61 µM)
C=CCOC(=O)COc1ccc2cc(-c3ccc(Cl)cc3)c(=O)oc2c1	2.53 (≈ 6.82 µM)
O=C(Cc1ccccc1)Nc1nnc(-c2ccc3c(c2)OCCO3)o1	15.8 (≈ 47 µM)
CCCCOc1cccc(C(=O)Nc2nnc(-c3cc(C)ccc3C)o2)c1	12.4 (≈ 33.9 µM)
COc1ccc2nc(Nc3nc(-c4ccccn4)cs3)sc2c1	< 0.2
CC(C)N1CCc2c(sc(NC(=O)c3cc4c(ccc5ccccc54)oc3=O)c2C(N)=O)C1	40.2 (≈ 87 µM)
COc1cc(/C=C(\C#N)c2nc(-c3ccc4c(c3)OCO4)cs2)cc([N+](=O)[O-])c1O	37.7 (≈ 89.2 µM)
O=C(Nc1nnc(-c2cc(Cl)ccc2Cl)o1)c1c(F)cccc1F	3.48 (≈ 9.4 µM)
CC(=O)N1CCc2c(sc(NC(=O)C(C)C)c2-c2nc3ccccc3s2)C1	13.5 (≈ 33.7 µM)
O=C(NNc1nc2ccc(Cl)cc2s1)c1cc(-c2cccs2)nc2ccccc12	30.9 (≈ 70.8 µM)
CC(C)CCn1c(N2CCN(Cc3cccc(Cl)c3)CC2)nc2c1c(=O)[nH]c(=O)n2C	14.1 (≈ 31.8 µM)

SMILES	IC90 [µg/mL]
Cc1ccc(C)c(-c2nnc(NC(=O)c3c(F)cccc3F)o2)c1	5.74 (≈ 17.4 µM)
Cc1ccc(C)c(N2CCN(C(=O)CCCCCn3c(=O)[nH]c4ccsc4c3=O)CC2)c1	10.9 (≈ 24 µM)
Cc1c(Cl)ccc2sc(N(CCCn3ccnc3)C(=O)/C=C/c3cccs3)nc12	0.24 (≈ 0.542 µM)
CCOC(=O)N1CCN(c2ncnc3c2cnn3-c2ccc(C)cc2)CC1	21.4 (≈ 58.5 µM)
COc1ccc(-c2nnc(NC(=O)c3ccccc3C)o2)cc1	9.97 (≈ 32.2 µM)
CS(=O)(=O)c1ccc2nc(Nc3nc4ccc(Cl)cc4s3)sc2c1	9.7 (≈ 24.5 µM)
COc1ccc(CCNc2cnnc(NCCc3ccc(OC)cc3)n2)cc1	24.5 (≈ 64.6 µM)
Cc1cccc(Cn2cc3c(-c4ccc(C)c(C)c4)nnc-3c3cc4c(cc32)OCCO4)c1	3.47 (≈ 7.97 µM)
Cc1cc(Cl)cc2sc(N(CCCn3ccnc3)C(=O)c3ccco3)nc12	< 0.2
Cc1ccc(C)c(-c2nnc(NC(=O)c3ccccc3C)o2)c1	2.48 (≈ 8.07 µM)
O=c1cnnc(N/N=C/c2c(O)ccc3ccccc23)[nH]1	< 0.2
O=C(CCCN1C(=O)/C(=C/c2ccco2)SC1=S)Nc1ccccc1	2.96 (≈ 7.95 µM)
O=C(Nc1nnc(-c2cccs2)o1)c1nc2ccccc2s1	2.98 (≈ 9.07 µM)
Cc1[nH]c2ccccc2c1SCCNC(=O)c1cc2ccccc2oc1=O	< 0.2
COc1ccccc1C(=O)Nc1nnc(-c2cc(C)ccc2C)o1	1.92 (≈ 5.94 µM)
Cc1nc2cc(NC(=O)Nc3ccc(Cl)cc3)ccc2n1-c1ccccc1	6.97 (≈ 18.5 µM)
O=C(Nc1nnc(-c2ccc3c(c2)CCCC3)o1)C1=COCCO1	9.82 (≈ 30 µM)
CCCCOc1ccc(C(=O)N2CC(=O)Nc3ccc(Cl)cc3C2c2ccc(F)cc2)cc1 (stereo not given)	13.1 (≈ 28.1 µM)
CCC(CO)Nc1ncnc2c1cnn2-c1ccc(Cl)c(Cl)c1 (stereo not given)	14.2 (≈ 40.5 µM)
CCOc1ccc2nc(N3CCCC3)sc2c1	17.2 (≈ 69.3 µM)
Cc1cc(C)c2sc(NNC(=O)c3nc4ccccc4s3)nc2c1	15.5 (≈ 43.7 µM)
CCOC(=O)c1cnc2ccc(OCC)cc2c1Nc1ccccc1C	8.82 (≈ 25.2 µM)
CC1CCc2c(sc(Nc3nc4c(F)cccc4s3)c2C(N)=O)C1 (stereo not given)	8.58 (≈ 23.7 µM)
